# Target: T1, HCV NS3-4A protease (Hepatitis C virus genotype 1a, UniProt P27958)
# T1 construct: HCV NS3-4A protease
# Test: HCV NS3-4A protease assay in vitro (FRET-S substrate)
# Format: biochemical
# Details: not given
# Experimental: HCV NS3-4A Protease Assay In Vitro.
# The assay was conducted in Buffer A containing 30 mM NaCl, 5 mM CaCl2, 10 mM DTT, 50 mM Tris (pH7.8), using the Ac-Asp-Glu-Asp(EDANS)-Glu-Glu-Abu-ψ-[COO]-Ala-Ser-Lys (DABCYL)-NH2 (FRET-S) fluorescent peptide (AnaSpec, USA) as substrate. Briefly, 140 μL buffer A, 20 μL compounds dissolved in buffer A with different concentration and 20 μL HCV NS3-4A protease diluted in buffer A were added into 96-well plate respectively and mixed well. The reaction was initiate with adding 20 μL of FRET-S. Reactions were continuously monitored at 37° C. using a BMG Polarstar Galaxy (MTX Lab Systems, Inc. USA), with excitation and emission filters of 355 nm and 520 nm, respectively. The 50% inhibitory concentration (IC50) was calculated with Reed & Muench methods.
# T1 sequence (P27958 1027-1657): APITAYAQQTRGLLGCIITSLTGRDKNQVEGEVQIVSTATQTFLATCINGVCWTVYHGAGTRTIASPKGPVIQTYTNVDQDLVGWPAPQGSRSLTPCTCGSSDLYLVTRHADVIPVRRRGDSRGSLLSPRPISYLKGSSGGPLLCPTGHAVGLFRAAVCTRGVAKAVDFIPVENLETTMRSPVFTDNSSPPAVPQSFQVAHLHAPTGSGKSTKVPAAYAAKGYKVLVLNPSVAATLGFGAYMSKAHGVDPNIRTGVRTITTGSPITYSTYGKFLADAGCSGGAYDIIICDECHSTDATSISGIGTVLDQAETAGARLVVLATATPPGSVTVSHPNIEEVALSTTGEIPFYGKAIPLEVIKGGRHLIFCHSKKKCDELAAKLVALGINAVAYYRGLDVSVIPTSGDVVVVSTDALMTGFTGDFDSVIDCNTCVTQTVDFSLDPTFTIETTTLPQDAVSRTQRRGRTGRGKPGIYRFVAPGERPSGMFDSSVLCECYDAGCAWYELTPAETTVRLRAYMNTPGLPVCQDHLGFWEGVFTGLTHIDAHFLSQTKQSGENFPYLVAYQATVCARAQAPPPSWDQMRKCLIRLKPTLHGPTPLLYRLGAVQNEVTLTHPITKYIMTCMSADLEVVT
# T1 sequence (P27958 1658-1711): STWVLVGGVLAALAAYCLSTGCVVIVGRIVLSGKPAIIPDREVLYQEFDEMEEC
row,SMILES,IC50
1,CC[C@H]1C[C@@]1(NC(=O)C1C[C@@H](OC(=O)N2Cc3ccc4c(c3C2)OCO4)CN1C(=O)[C@@H](NC(=O)[C@@H](NC(=O)c1cnccn1)C1CCCCC1)C(C)(C)C)C(=O)NS(=O)(=O)C1CC1 (some centres unmarked) [Compound 30f],< 30 nM
2,C=C[C@H]1C[C@@]1(NC(=O)C1C[C@@H](OC(=O)N2Cc3cc4c(cc3C2)OCCCO4)CN1C(=O)[C@@H](NC(=O)[C@@H](NC(=O)c1cnccn1)C1CCCCC1)C(C)(C)C)C(=O)NS(=O)(=O)C1CC1 (some centres unmarked) [Compound 30g],< 30 nM
3,CC[C@H]1C[C@@]1(NC(=O)C1C[C@@H](OC(=O)N2Cc3cc4c(cc3C2)OCCCO4)CN1C(=O)[C@@H](NC(=O)[C@@H](NC(=O)c1cnccn1)C1CCCCC1)C(C)(C)C)C(=O)NS(=O)(=O)C1CC1 (some centres unmarked) [Compound 30h],< 30 nM
4,CC[C@H]1C[C@@]1(NC(=O)C1C[C@@H](OC(=O)N2Cc3ccc4c(c3C2)OCCCO4)CN1C(=O)[C@@H](NC(=O)[C@@H](NC(=O)c1cnccn1)C1CCCCC1)C(C)(C)C)C(=O)NS(=O)(=O)C1CC1 (some centres unmarked) [Compound 30j],< 30 nM
5,C=C[C@H]1C[C@@]1(NC(=O)C1C[C@@H](OC(=O)N2Cc3cccc(F)c3C2)CN1C(=O)[C@@H](NC(=O)[C@@H](NC(=O)c1cnccn1)C1CCCCC1)C(C)(C)C)C(=O)NS(=O)(=O)C1CC1 (some centres unmarked) [Compound 30k],< 30 nM
6,CC[C@H]1C[C@@]1(NC(=O)C1C[C@@H](OC(=O)N2Cc3cc4c(cc3C2)OCO4)CN1C(=O)[C@@H](NC(=O)[C@@H](NC(=O)OC(C)(C)C)C1CCCCC1)C(C)(C)C)C(=O)NS(=O)(=O)C1CC1 (some centres unmarked) [Compound 30m],< 30 nM
7,CC[C@H]1C[C@@]1(NC(=O)C1C[C@@H](OC(=O)N2Cc3cc4c(cc3C2)OCO4)CN1C(=O)[C@@H](NC(=O)[C@@H](NC(=O)OC1CCCC1)C1CCCCC1)C(C)(C)C)C(=O)NS(=O)(=O)C1CC1 (some centres unmarked) [Compound 30t],< 30 nM
8,CCOC(=O)N[C@H](C(=O)N[C@H](C(=O)N1C[C@H](OC(=O)N2Cc3cc4c(cc3C2)OCO4)CC1C(=O)N[C@@]1(C(=O)NS(=O)(=O)C2CC2)C[C@@H]1CC)C(C)(C)C)C1CCCCC1 (some centres unmarked) [Compound 30v],< 30 nM
9,CC[C@H]1C[C@@]1(NC(=O)C1C[C@@H](OC(=O)N2Cc3cc4c(cc3C2)OCO4)CN1C(=O)[C@@H](NC(=O)[C@@H](NC(=O)OC(C)C)C1CCCCC1)C(C)(C)C)C(=O)NS(=O)(=O)C1CC1 (some centres unmarked) [Compound 30w],< 30 nM
10,CC[C@H]1C[C@@]1(NC(=O)C1C[C@@H](OC(=O)N2Cc3cc4c(cc3C2)OCO4)CN1C(=O)[C@@H](NC(=O)[C@@H](NC(=O)OC)C1CCCCC1)C(C)(C)C)C(=O)NS(=O)(=O)C1CC1 (some centres unmarked) [Compound 30x],< 30 nM
11,CC[C@H]1C[C@@]1(NC(=O)C1C[C@@H](OC(=O)N2Cc3cc4c(cc3C2)OCO4)CN1C(=O)[C@@H](NC(=O)[C@@H](NC(=O)OCc1ccccc1)C1CCCCC1)C(C)(C)C)C(=O)NS(=O)(=O)C1CC1 (some centres unmarked) [Compound 30y],< 30 nM
12,CC[C@H]1C[C@@]1(NC(=O)C1C[C@@H](OC(=O)N2Cc3cc4c(cc3C2)OCO4)CN1C(=O)[C@@H](NC(=O)[C@@H](NC(=O)Oc1ccccc1)C1CCCCC1)C(C)(C)C)C(=O)NS(=O)(=O)C1CC1 (some centres unmarked) [Compound 30z],< 30 nM
13,CCC[C@H](NC(=O)C1C[C@@H](OC(=O)N2Cc3cc4c(cc3C2)OCO4)CN1C(=O)[C@@H](NC(=O)[C@@H](NC(=O)c1cnccn1)C1CCCCC1)C(C)(C)C)C(=O)C(=O)NC1CC1 (some centres unmarked) [Compound 33a],30 to 200 nM
14,CCC[C@H](NC(=O)C1C[C@@H](OC(=O)N2Cc3cc4c(cc3C2)OCCO4)CN1C(=O)[C@@H](NC(=O)[C@@H](NC(=O)c1cnccn1)C1CCCCC1)C(C)(C)C)C(=O)C(=O)NC1CC1 (some centres unmarked) [Compound 33b],30 to 200 nM
15,CCC[C@H](NC(=O)C1C[C@@H](OC(=O)N2Cc3ccc4c(c3C2)OCO4)CN1C(=O)[C@@H](NC(=O)[C@@H](NC(=O)c1cnccn1)C1CCCCC1)C(C)(C)C)C(=O)C(=O)NC1CC1 (some centres unmarked) [Compound 33c],30 to 200 nM
16,CCC[C@H](NC(=O)C1C[C@@H](OC(=O)N2Cc3ccc4c(c3C2)OCCO4)CN1C(=O)[C@@H](NC(=O)[C@@H](NC(=O)c1cnccn1)C1CCCCC1)C(C)(C)C)C(=O)C(=O)NC1CC1 (some centres unmarked) [Compound 33d],> 200 nM

# Same assay, conditions: HCV NS3-4A protease inhibition, 37° C., class symbols; read-out: NS3-NS4A IC50
row,IC50,SMILES
1,< 30 nM,CC[C@H]1C[C@@]1(NC(=O)C1C[C@@H](OC(=O)N2Cc3cc4c(cc3C2)OCO4)CN1C(=O)[C@@H](NC(=O)[C@@H](NS(C)(=O)=O)C1CCCCC1)C(C)(C)C)C(=O)NS(=O)(=O)C1CC1 (some centres unmarked) [Compound 30n]
2,< 30 nM,CC[C@H]1C[C@@]1(NC(=O)C1C[C@@H](OC(=O)N2Cc3cc4c(cc3C2)OCO4)CN1C(=O)[C@@H](NC(=O)[C@@H](NS(=O)(=O)c1cccc2ccccc12)C1CCCCC1)C(C)(C)C)C(=O)NS(=O)(=O)C1CC1 (some centres unmarked) [Compound 30p]
3,< 30 nM,CC[C@H]1C[C@@]1(NC(=O)C1C[C@@H](OC(=O)N2Cc3cc4c(cc3C2)OCO4)CN1C(=O)[C@@H](NC(=O)[C@@H](NS(=O)(=O)c1ccccc1)C1CCCCC1)C(C)(C)C)C(=O)NS(=O)(=O)C1CC1 (some centres unmarked) [Compound 30r]
4,< 30 nM,CC[C@H]1C[C@@]1(NC(=O)C1C[C@@H](OC(=O)N2Cc3cc4c(cc3C2)OCO4)CN1C(=O)[C@@H](NC(=O)[C@@H](NS(=O)(=O)c1ccc2ccccc2c1)C1CCCCC1)C(C)(C)C)C(=O)NS(=O)(=O)C1CC1 (some centres unmarked) [Compound 30s]
